Like-named read-outs stand apart in the source and are kept apart here.
What was measured:
[1] = system: fibrin-induced microglia activation; assay: Image-based assay of fibrin-induced microglia activation (HTS and dose response); assay type: cell-based, rat; settings: for inhibition at 10 µM: Rattus norvegicus, Microglia, read-out: Fibrin % inhibition
[2] = system: LPS-induced microglia activation; assay: Image-based assay of LPS-induced microglia activation (HTS and dose response); assay type: cell-based, rat; settings: for inhibition at 10 µM: Rattus norvegicus, Microglia, read-out: LPS % inhibition
[3] = system: fibrin- and LPS-induced microglia activation; assay: cells; assay type: cell-based, rat
primary rat microglia [4] = assay: Cell toxicity (dead cells, size <150 μm2) in LPS assay; settings: for IC50: read-out: Cell Toxicity IC50 (uM) [LPS assay]
primary rat microglia [5] = assay: Cell toxicity (dead cells, size <150 μm2) in coated fibrin (cFib) assay; settings: for IC50: read-out: Cell Toxicity IC50 (uM) [cFib assay];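 as to Fibrin % cell toxicity: share of dead cells sized under 150 µm2 at 10 µM in fibrin-stimulated microglia HTS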
[6] = primary microglia HTS, 10 μM, fibrin-stimulated, cell size >800 μm^2 as marker of activation
[7] = primary microglia HTS, 10 μM, LPS-stimulated, cell size >800 μm^2 as marker of activation
[8] = HTS of 1907 compounds, quadrant by fibrin and LPS inhibition
[9] = primary microglia HTS, 10 μM, LPS assay, cell size <150 μm^2 as marker of toxicity
[10] = primary microglia HTS, 10 μM, fibrin assay, cell size <150 μm^2 as marker of toxicity
[11] = primary microglia HTS, fibrin stimulation, increased cell size (>800 μm^2) as marker of activation
[12] = primary microglia HTS, LPS stimulation, increased cell size (>800 μm^2) as marker of activation
[13] = quadrant by fibrin and LPS inhibition in HTS of 1907 compounds
[14] = primary microglia HTS, LPS stimulation, decreased size (<150 μm^2) as marker of toxicity
[15] = primary microglia HTS, fibrin stimulation, decreased size (<150 μm^2) as marker of toxicity
[16] = primary HTS, 10 μM, fibrin-stimulated primary microglia
[17] = primary HTS, 10 μM, LPS-stimulated primary microglia
[18] = primary HTS, 10 μM, LPS assay, dead cells size <150 μm2
[19] = primary HTS, 10 μM, fibrin assay, dead cells size <150 μm2
[20] = 48 h, primary microglia HTS, LPS stimulation, increased cell size (>800 μm^2) as marker of activation

Structure (SMILES): O=c1cc[nH]c(=O)[nH]1 [Uracil]
- inhibition at 10 µM [1, 6]: 3%
- inhibition at 10 µM [2, 7]: 11%
- Quadrant (FIG. 5b) [3, 8]: Q4
- LPS % cell toxicity (primary rat microglia [4]; [9]): 0%
- Fibrin % cell toxicity (primary rat microglia [5]; [10]): 0%

Structure (SMILES): COC(=O)[C@@H]1CC2=CC(=O)CC[C@]2(C)[C@@]23O[C@@H]2C[C@@]2(C)[C@@H](CC[C@@]24CCC(=O)O4)[C@H]13 [Eplerenore, reference compound]
- Fibrin Selectivity [1]: 8
- Fibrin Selectivity (LOG10) [1]: 0.88
- IC50 ([1]; Table 1, dose response 0.001-20 μM, triplicates, primary rat microglia, 48 h, read-out: Fibrin IC50): 3 µM
- IC50 ([1]; Table 3, read-out: Fibrin IC50 (uM) (Suppl. Table 7)): 3 µM
- IC50 ([1]; dose response, fibrin-induced microglia activation, read-out: Fibrin IC50): 3 µM
- IC50 ([1]; fibrin-induced microglia activation, dose response, read-out: Fibrin IC50 (uM) (Suppl. Table 7)): 3 µM
- Fibrin % inhibition [1, 11]: 63%
- IC50 ([2]; LPS-induced microglia activation, dose response, read-out: LPS IC50 (uM) (Suppl. Table 7)): > 20 µM
- IC50 ([2]; Table 1, dose response 0.001-20 μM, triplicates, primary rat microglia, 48 h, read-out: LPS IC50): > 20 µM
- IC50 ([2]; Table 3, read-out: LPS IC50 (uM) (Suppl. Table 7)): > 20 µM
- IC50 ([2]; dose response, LPS-induced microglia activation, read-out: LPS IC50): > 20 µM
- LPS % inhibition [2, 12]: 69%
- Hit ([3]; HTS hit classification): HIT (Hits were defined as molecules that exhibited greater than 50% inhibition of either fibrin or LPS activation)
- Quadrant (FIG. 5b) [3, 8]: Q2
- Quadrant (FIG. 5b) ([3]; Table 1, screen at 10 μM): Q2
- Cherry-picked Hit (Suppl. Table 7) ([3]; Table 3): HIT (Hits were defined as molecules that exhibited greater than 50% inhibition of either fibrin or LPS activation)
- Quadrant (FIG. 5b) ([3]; Table 3, screen at 10 μM): Q2
- Cherry-picked Hit (Suppl. Table 7) ([3]; hit classification in microglia HTS): HIT (Hits were defined as molecules that exhibited greater than 50% inhibition of either fibrin or LPS activation)
- Quadrant (FIG. 5b) [3, 13]: Q2
- LPS % cell toxicity (primary rat microglia [4]; [14]): 2%
- IC50 (primary rat microglia [4]; LPS assay): > 20 µM
- IC50 (primary rat microglia [4]; Table 3): > 20 µM
- Fibrin % cell toxicity (primary rat microglia [5]; [15]): 2%
- IC50 (primary rat microglia [5]; Table 3): > 20 µM
- IC50 (primary rat microglia [5]; cFib assay): > 20 µM

Structure (SMILES): CC(C)/N=c1\cc2n(-c3ccc(Cl)cc3)c3ccccc3nc-2cc1Nc1ccc(Cl)cc1 [Clofazimine]
- inhibition at 10 µM [1, 16]: 23%
- inhibition at 10 µM [2, 17]: 15%
- Quadrant (FIG. 5b) ([3]; primary HTS, 10 μM): Q4
- LPS % cell toxicity (primary rat microglia [4]; [18]): 0%
- Fibrin % cell toxicity (primary rat microglia [5]; [19]): 1%

Structure (SMILES): CN(Cc1cc(Br)cc(Br)c1N)C1CCCCC1 [Bromhexine]
- inhibition at 10 µM [1, 16]: -16%
- inhibition at 10 µM [2, 17]: 11%
- Quadrant (FIG. 5b) ([3]; primary HTS, 10 μM): Q4
- LPS % cell toxicity (primary rat microglia [4]; [18]): 0%
- Fibrin % cell toxicity (primary rat microglia [5]; [19]): 0%

Structure (SMILES): C[C@]12CCC(=O)C=C1C=C[C@@H]1[C@@H]2CC[C@@]2(C)[C@H]1CC[C@@]21CCC(=O)O1 [Canrenone]
- inhibition at 10 µM [1, 16]: -10%
- inhibition at 10 µM [2, 17]: 19%
- Quadrant (FIG. 5b) ([3]; primary HTS, 10 μM): Q4
- LPS % cell toxicity (primary rat microglia [4]; [18]): 0%
- Fibrin % cell toxicity (primary rat microglia [5]; [19]): 1%

Structure (SMILES): CCn1nc(C(=O)O)c(=O)c2cc3c(cc21)OCO3 [Cinoxacin]
- inhibition at 10 µM [1, 11]: 117%
- inhibition at 10 µM [2, 20]: 115%
- Quadrant (FIG. 5b) [3, 13]: Q2
- LPS % cell toxicity (primary rat microglia [4]; [14]): 12%
- Fibrin % cell toxicity (primary rat microglia [5]; [15]): 50%

Structure (SMILES): C[C@H](Cn1cnc2c(N)ncnc21)OCP(=O)(O)O [Tenofovir]
- Fibrin % inhibition [1, 6]: −10%
- LPS % inhibition [2, 7]: 17%
- Quadrant (FIG. 5b) [3, 8]: Q4
- LPS % cell toxicity (primary rat microglia [4]; [9]): 0%
- Fibrin % cell toxicity (primary rat microglia [5]; [10]): 0%

Structure (SMILES): O=[N+]([O-])c1ccc([As](=O)(O)O)cc1 [Nitarsone]
- Fibrin % inhibition [1, 11]: −3%
- LPS % inhibition [2, 12]: 19%
- Quadrant (FIG. 5b) [3, 13]: Q4
- LPS % cell toxicity (primary rat microglia [4]; [14]): 0%
- Fibrin % cell toxicity (primary rat microglia [5]; [15]): 1%

Structure (SMILES): Cc1ccccc1N1C(=O)c2cc(S(N)(=O)=O)c(Cl)cc2NC1C (stereo not shown) [Metolazone]
- inhibition at 10 µM [1, 11]: -2%
- inhibition at 10 µM [2, 20]: 19%
- Quadrant (FIG. 5b) [3, 13]: Q4
- LPS % cell toxicity (primary rat microglia [4]; [14]): 0%
- Fibrin % cell toxicity (primary rat microglia [5]; [15]): 1%

Structure (SMILES): O=C1Nc2ccc(Cl)cc2C(c2ccccc2Cl)=NC1O (stereo not shown) [Lorazepam]
- inhibition at 10 µM ([1]; primary microglia HTS, fibrin stimulation, activation = cell size >800 μm2): -13%
- inhibition at 10 µM ([2]; 48 h, primary microglia HTS, LPS stimulation, activation = cell size >800 μm2): -1%
- Quadrant (FIG. 5b) [3, 13]: Q4
- LPS % cell toxicity (primary rat microglia [4]; primary microglia HTS, LPS stimulation, toxicity = cell size <150 μm2): 0%
- Fibrin % cell toxicity (primary rat microglia [5]; primary microglia HTS, fibrin stimulation, toxicity = cell size <150 μm2): 1%

Reference: patent US20210330611A1, “THERAPY FOR NEUROLOGICAL DISEASES/DISORDERS” (priority 2020, published 2021)
